Results on 21 compounds are retold here after patent US8609653B2, “Azaindole compounds and methods for treating HIV” (priority 2011, dated 2013).

Counter-ions that a name gives are not always drawn.

The experiment relates to HIV. The experiment is described as follows: MT4 assay: antiviral HIV activity in MT-4 cells. The experiment is classed as cell-based. The note with it: Human immunodeficiency virus 1, MT4, 96 h, read-out: HIV MT4 Assay IC50 (μM), HTLV-1 transformed cell line MT-4; read-out 96 hours later with cell titer glo; 10 point dose response. The protocol:
Antiviral HIV activity and cytotoxicity values for compounds of the invention from Table 1 were measured in parallel in the HTLV-1 transformed cell line MT-4 based on the method previously described (Hazen et al., 2007, In vitro antiviral activity of the novel, tyrosyl-based human immunodeficiency virus (HIV) type 1 protease inhibitor brecanavir (GW640385) in combination with other antiretrovirals and against a panel of protease inhibitor-resistant HIV (Hazen et al., “In vitro antiviral activity of the novel, tyrosyl-based human immunodeficiency virus (HIV) type 1 protease inhibitor brecanavir (GW640385) in combination with other antiretrovirals and against a panel of protease inhibitor-resistant HIV”, Antimicrob. Agents Chemother. 2007, 51: 3147-3154; and Pauwels et al., “Sensitive and rapid assay on MT-4 cells for the detection of antiviral compounds against the AIDS virus”, J. of Virological Methods 1987, 16: 171-185).
Luciferase activity was measured 96 hours later by adding a cell titer glo (Promega, Madison, Wis.). Percent inhibition of cell protection data was plotted relative to no compound control. Under the same condition, cytotoxicity of the compounds was determined using cell titer Glo™ (Promega, Madison, Wis.). IC50s were determined from a 10 point dose response curve using 3-4-fold serial dilution for each compound, which spans a concentration range>1000 fold.
These values are plotted against the molar compound concentrations using the standard four parameter logistic equation: y=((Vmax*x^n)/(K^n+x^n))+Y2
Y2=minimum y n=slope factor
Vmax=maximum y x=compound concentration [M]
Consider `Cc1nc2c(ccn2Cc2ccc(F)c(F)c2)c(-c2cc(Cl)c3c(c2C)CCCO3)c1[C@H](OC(C)(C)C)C(=O)O` (atropisomer, axis not shown; (M)) [Example 95, (2S)(M)-2-(tert-butoxy)-2-(4-(8-chloro-5-methylchroman-6-yl)-1-(3,4-difluorobenzyl)-6-methyl-1H-pyrrolo[2,3-b]pyridin-5-yl)acetic acid], for which the concentration for half-maximal inhibition (IC50) (commonly the concentration that gives 50% inhibition) came out at 0.04 µM.
As to `Cc1nc2c(ccn2Cc2ccc(F)c(F)c2)c(-c2ccc3c(c2)CCCO3)c1[C@@H](OC(C)(C)C)C(=O)O` [Example 28, (R)-2-(tert-butoxy)-2-(4-(chroman-6-yl)-1-(3,4-difluorobenzyl)-6-methyl-1H-pyrrolo[2,3-b]pyridin-5-yl)acetic acid], the IC50 is 6.56 µM.
Consider `COc1cccc(F)c1Cn1ccc2c(-c3ccc4c(c3C)CCCO4)c([C@H](OC(C)(C)C)C(=O)O)c(C)nc21` [Example 121, (2S)-2-(tert-butoxy)-2-(1-(2-fluoro-6-methoxybenzyl)-6-methyl-4-(5-methylchroman-6-yl)-1H-pyrrolo[2,3-b]pyridin-5-yl)acetic acid], for which the IC50 stood at 0.002 µM.
For `Cc1ccc(-c2c(C(OC(C)(C)C)C(=O)O)c(C)nc3c2ccn3Cc2cccc(F)c2F)cc1` (stereo not drawn) [Example 21, 2-(tert-butoxy)-2-(1-(2,3-difluorobenzyl)-6-methyl-4-(p-tolyl)-1H-pyrrolo[2,3-b]pyridin-5-yl)acetic acid], the IC50 amounted to 0.1 µM.
Take `Cc1ccc(-c2c(C(OC(C)(C)C)C(=O)O)c(C)nc3c2ccn3Cc2ccc(F)c(C(F)(F)F)c2)cc1` (stereo not drawn) [Example 69, 2-(tert-butoxy)-2-(1-(4-fluoro-3-(trifluoromethyl)benzyl)-6-methyl-4-(p-tolyl)-1H-pyrrolo[2,3-b]pyridin-5-yl)acetic acid]: the IC50 stood at 0.25 µM.
In the case of `Cc1ccc(-c2c([C@H](OC(C)(C)C)C(=O)O)c(C)nc3c2ccn3Cc2ccccc2F)cc1` [Example 88, (S)-2-(tert-butoxy)-2-(1-(2-fluorobenzyl)-6-methyl-4-(p-tolyl)-1H-pyrrolo[2,3-b]pyridin-5-yl)acetic acid], the IC50 was 0.107 µM.
Take `Cc1nc2c(ccn2Cc2ccc(F)cc2Cl)c(-c2ccc3c(c2)CCCO3)c1[C@@H](OC(C)(C)C)C(=O)O` [Example 47, (R)-2-(tert-butoxy)-2-(1-(2-chloro-4-fluorobenzyl)-4-(chroman-6-yl)-6-methyl-1H-pyrrolo[2,3-b]pyridin-5-yl)acetic acid]: the IC50 was found to be 50 µM.
For `Cc1ccc(-c2c([C@H](OC(C)(C)C)C(=O)O)c(C)nc3c2ccn3Cc2cc(F)c(F)c(F)c2)cc1` [Example 9, (S)-2-(tert-butoxy)-2-(6-methyl-4-(p-tolyl)-1-(3,4,5-trifluorobenzyl)-1H-pyrrolo[2,3-b]pyridin-5-yl)acetic acid], the IC50 is 0.04 µM.
Consider `Cc1nc2c(ccn2Cc2ccc(F)c(F)c2)c(-c2ccc3c(c2Cl)N(C)CCO3)c1[C@H](OC(C)(C)C)C(=O)O` (atropisomer, axis not shown; (M)) [Example 116, (2S)(M)-2-(tert-Butoxy)-2-(4-(5-chloro-4-methyl-3,4-dihydro-2H-benzo[b][1,4]oxazin-6-yl)-1-(3,4-difluorobenzyl)-6-methyl-1H-pyrrolo[2,3-b]pyridin-5-yl)acetic acid, Trifluoroacetic acid salt], for which the IC50 stood at 0.022 µM.
With `Cc1nc2c(ccn2Cc2cccc(F)c2F)c(-c2ccc3c(c2)CCCO3)c1[C@@H](OC(C)(C)C)C(=O)O` [Example 86, (R)-2-(tert-butoxy)-2-(4-(chroman-6-yl)-1-(2,3-difluorobenzyl)-6-methyl-1H-pyrrolo[2,3-b]pyridin-5-yl)acetic acid], the IC50 is 50 µM.
As to `Cc1nc2c(ccn2CCc2ccc(F)cc2)c(-c2ccc3c(c2)CCCO3)c1C(OC(C)(C)C)C(=O)O` (stereo not drawn) [Example 42, 2-(tert-butoxy)-2-(4-(chroman-6-yl)-1-(4-fluorophenethyl)-6-methyl-1H-pyrrolo[2,3-b]pyridin-5-yl)acetic acid], the IC50 came out at 0.58 µM.
For the compound `Cc1ccc(-c2c(C(OC(C)(C)C)C(=O)O)c(C)nc3c2ccn3C2CCC(C)CC2)cc1` [Example 74, 2-(tert-butoxy)-2-(6-methyl-1-((1R,4R)-4-methylcyclohexyl)-4-(p-tolyl)-1H-pyrrolo[2,3-b]pyridin-5-yl)acetic acid], the IC50 came out at 2.33 µM.
In the case of `Cc1nc2c(ccn2Cc2ccc(-n3cncn3)cc2)c(-c2ccc3c(c2)CCCO3)c1C(OC(C)(C)C)C(=O)O` (stereo not drawn) [Example 62, 2-(1-(4-(1H-1,2,4-triazol-1-yl)benzyl)-4-(chroman-6-yl)-6-methyl-1H-pyrrolo[2,3-b]pyridin-5-yl)-2-(tert-butoxy)acetic acid], the IC50 came out at 0.98 µM.
To `Cc1ccc(-c2c(C(OC(C)(C)C)C(=O)O)c(C)nc3c2ccn3Cc2c(Cl)ccc(F)c2F)cc1` (stereo not drawn) [Example 49, 2-(tert-butoxy)-2-(1-(6-chloro-2,3-difluorobenzyl)-6-methyl-4-(p-tolyl)-1H-pyrrolo[2,3-b]pyridin-5-yl)acetic acid] belongs 0.123 µM; to `Cc1ccc(-c2c(C(OC(C)(C)C)C(=O)O)c(C)nc3c2ccn3Cc2ccc(F)cc2Cl)cc1` (stereo not drawn) [Example 13, 2-(tert-butoxy)-2-(1-(2-chloro-4-fluorobenzyl)-6-methyl-4-(p-tolyl)-1H-pyrrolo[2,3-b]pyridin-5-yl)acetic acid], 0.43 µM; to `Cc1nc2c(ccn2[C@H](C)c2ccc(F)cc2)c(-c2ccc3c(c2)CCCO3)c1C(OC(C)(C)C)C(=O)O` (stereo partly drawn) [Example 81], 0.03 µM.
Regarding `COCCn1ccc2c(-c3ccc(C)cc3)c(C(OC(C)(C)C)C(=O)O)c(C)nc21` (stereo not drawn) [Example 75, 2-(tert-Butoxy)-2-(1-(2-methoxyethyl)-6-methyl-4-(p-tolyl)-1H-pyrrolo[2,3-b]pyridin-5-yl)acetic acid], the IC50 amounted to 4.1 µM.
For `Cc1nc2c(c(-c3ccc4c(c3C)CCCO4)c1[C@H](OC(C)(C)C)C(=O)O)CCN2` (atropisomer, axis not shown; (M)) [Example 108, (2S)(M)-2-(tert-Butoxy)-2-(6-methyl-4-(5-methylchroman-6-yl)-2,3-dihydro-1H-pyrrolo[2,3-b]pyridin-5-yl)acetic acid], the IC50 worked out at 0.44 µM.
In the case of `Cc1ccc(-c2c([C@H](OC(C)(C)C)C(=O)O)c(C)nc3c2ccn3Cc2ccc(F)c(F)c2)cc1` [Example 18, (S)-2-(tert-butoxy)-2-(1-(3,4-difluorobenzyl)-6-methyl-4-(p-tolyl)-1H-pyrrolo[2,3-b]pyridin-5-yl)acetic acid], the IC50 was determined as 0.1 µM.
Turning to `Cc1nc2c(ccn2Cc2ccc(F)c(F)c2)c(-c2ccc3c(c2)CCO3)c1[C@H](OC(C)(C)C)C(=O)O` [Example 112, (S)-2-(tert-butoxy)-2-(1-(3,4-difluorobenzyl)-4-(2,3-dihydrobenzofuran-5-yl)-6-methyl-1H-pyrrolo[2,3-b]pyridin-5-yl)acetic acid], the IC50 amounted to 0.011 µM.
Regarding `Cc1nc2c(ccn2CC2CCC2)c(-c2ccc3c(c2)CCCO3)c1C(OC(C)(C)C)C(=O)O` (stereo not drawn) [Example 68, 2-(tert-butoxy)-2-(4-(chroman-6-yl)-1-(cyclobutylmethyl)-6-methyl-1H-pyrrolo[2,3-b]pyridin-5-yl)acetic acid], the IC50 worked out at 0.72 µM.
